Measured values as given in patent publication US9120795B2, “Crystalline form of a β-lactamase inhibitor” (Cubist Pharmaceuticals, Inc., priority 2013, dated 2015).
“Also recorded” adds a separate entry of the source.

Assays:
[1] = system: Eco.2491 (CMY-2, clinical); experiment: Standard BLI potentiation MIC assay; format: cell-based, Eschericia coli; details: read-out: MIC of β-lactam with BLI
Procedure: (§1) The experimental protocol was performed according to Clinical and Laboratory Standards Institute (CLSI) guidelines with modifications as described below (CLSI guidelines can be derived from the CLSI document M07-A9 published in January 2012: “Methods for Dilution Antimicrobial Susceptibility Tests for Bacteria That Grow Aerobically; Approved Standard-Ninth Edition”).
(§2) To prepare for MIC testing, frozen glycerol stocks of clinical isolates (Klebsiella pneumoniae, Eschericia coli, Enterobacter spp, Citrobacter spp, or Pseudomonas aeruginosa) were used to streak for isolated colonies on rich, non-selective, tryptic soy agar containing 5% sheep's blood (TSAB). Frozen glycerol stocks of laboratory engineered, isogenic E. coli strains, which contain cloned β-lactamase expressing plasmids were used to streak for isolated colonies on rich, selective LB agar supplemented with 25 μg/mL tetracycline to maintain the plasmid. All strains were incubated at 37° C. for 18-24 hrs.
(§3) On the day of testing, primary cultures were started by scraping off 5-10 colonies from the TSAB plates containing clinical strains or the tetracycline supplemented LB plates containing engineered strains. The clinical strain material was suspended in ˜5 mL of cation adjusted Mueller Hinton Broth (CAMHB) in 14 mL culture tubes. The engineered strain material was suspended in CAMHB (supplemented with 25 μg/mL tetracycline) in 14 mL culture tubes. All strains were incubated at 37° C. with aeration (200 rpm) for ˜2 hrs until the optical density at 600 nm (OD600) was ≧0.1.
(§4) The two compound components of the assay were each diluted in CAMHB and added to the 96-well broth microdilution assay plates. 50 μL of the β-lactam was added to each well of the assay plate in 2-fold dilutions with final concentrations ranging from 128 to 0.13 μg/mL. 25 μL of the BLI compound was added to all wells in the broth microdilution plates at a final concentration of 4 μg/mL. Inoculum cultures were prepared by standardizing the primary cultures to OD600=0.1 and then adding 20 μL of the adjusted primary culture per 1 mL CAMHB for clinical strains or CAMHB (supplemented with tetracycline at 100 μg/mL) for engineered strains, so that the final inoculum density was ˜10^5 colony forming units per milliliter. Diluted inoculum cultures were used to inoculate 25 μL per well in 96-well broth microdilution assay plates. The final volume of each well was 100 μL and contained a β-lactam at different concentrations, a BLlcompound at 4 μg/mL concentration, the bacterial culture at an OD600 of approximately 0.001 and when necessary tetracycline at 25 μg/mL.
(§5) Plates were incubated for 18-20 hours at 37° C. with aeration (200 rpm). Following incubation, growth was confirmed visually placing plates over a viewing apparatus (stand with a mirror underneath) and then OD600 was measured using a SpectraMax 340PC384 plate reader (Molecular Devices, Sunnyvale, Calif.). Growth was defined as turbidity that could be detected with the naked eye or achieving minimum OD600 of 0.1. MIC values were defined as the lowest concentration producing no visible turbidity.

[2] = system: Eco.2781 (KPC-2, TEM+, clinical); experiment: Standard BLI potentiation MIC assay; format: cell-based, Eschericia coli; details: read-out: MIC of β-lactam with BLI
Procedure: as §1, §2, §3, §4, §5

[3] = system: Eco.2806 (KPC-2, isogenic); experiment: Standard BLI potentiation MIC assay; format: cell-based, Eschericia coli; details: read-out: MIC of β-lactam with BLI
Procedure: as §1, §2, §3, §4, §5

[4] = system: Eco.2840 (KPC-4, isogenic); experiment: Standard BLI potentiation MIC assay; format: cell-based, Eschericia coli; details: read-out: MIC of β-lactam with BLI
Procedure: as §1, §2, §3, §4, §5

[5] = system: Eco.2843 (DHA-1, isogenic); experiment: Standard BLI potentiation MIC assay; format: cell-based, Eschericia coli; details: read-out: MIC of β-lactam with BLI
Procedure: as §1, §2, §3, §4, §5

[6] = system: Eco.2845 (OXA-15, isogenic); experiment: Standard BLI potentiation MIC assay; format: cell-based, Eschericia coli; details: read-out: MIC of β-lactam with BLI
Procedure: as §1, §2, §3, §4, §5

[7] = system: Eco.2902 (Aba-ADC-33, isogenic); experiment: Standard BLI potentiation MIC assay; format: cell-based, Eschericia coli; details: read-out: MIC of β-lactam with BLI
Procedure: as §1, §2, §3, §4, §5

[8] = Gravimetric vapour sorption (GVS/DVS), hygroscopicity; format: physicochemical; details: DVS, 25° C., 0-90% RH; sulfate
Procedure: Sorption isotherms were obtained using a SMS DVS Intrinsic moisture sorption analyser, controlled by DVS Intrinsic Control software v1.0.1.2 (or v 1.0.1.3). The sample temperature was maintained at 25° C. by the instrument controls. The humidity was controlled by mixing streams of dry and wet nitrogen, with a total flow rate of 200 ml/min The relative humidity was measured by a calibrated Rotronic probe (dynamic range of 1.0-100% RH), located near the sample. The weight change, (mass relaxation) of the sample as a function of % RH was constantly monitored by the microbalance (accuracy ±0.005 mg).
Typically 5-20 mg of sample was placed in a tared mesh stainless steel basket under ambient conditions. The sample was loaded and unloaded at 40% RH and 25° C. (typical room conditions). A moisture sorption isotherm was performed as outlined below (2 scans giving 1 complete cycle). The standard isotherm was performed at 25° C. at 10% RH intervals over a 0-90% RH range Data analysis was undertaken in Microsoft Excel using DVS Analysis Suite v6.2 (or 6.1 or 6.0).
The sample was recovered after completion of the isotherm and re-analysed by XRPD.

O=C1N2C[C@@H](CC[C@H]2c2nnco2)N1OS(=O)(=O)[O-].[Na+] [Hydrate 1, sodium (2S,5R)-2-(1,3,4-oxadiazol-2-yl)-7-oxo-1,6-diazabicyclo[3.2.1]octan-6-yl sulfate]
MIC [1]: 0.25 to 0.5 µg/mL
MIC [2]: 0.25 to 0.5 µg/mL
MIC [3]: 0.25 to 0.5 µg/mL
MIC [4]: 1 to 2 µg/mL
MIC [5]: 0.25 to 0.5 µg/mL
MIC [6]: 1 to 2 µg/mL
MIC [7]: 1 to 2 µg/mL
hygroscopicity relative to the amorphous form [8]: significantly less hygroscopic than the amorphous form; also recorded: low hygroscopicity relative to amorphous
